Test results as given in the NIST ThermoML archive (doi:10.1016/j.jct.2017.02.010).

Conditions: Gas chromatography

CC1=C2CC[C@@H](C)C[C@H]2OC1=O [(-)-mintlactone]
Metastable liquid
Conditions	vapor or sublimation pressure [kPa]
298.15 K	0.00033
305 K	0.00063
310 K	0.001
315 K	0.0015
320 K	0.0024
325 K	0.0035
330 K	0.0053
335 K	0.0077
340 K	0.011
345 K	0.016
350 K	0.023

CCCC[C@H]1OC(=O)C[C@@H]1C [trans-whiskey lactone]
Liquid
Conditions	vapor or sublimation pressure [kPa]
298.15 K	0.002
305 K	0.0036
310 K	0.0056
315 K	0.0084
320 K	0.012
325 K	0.018
330 K	0.026
335 K	0.037
340 K	0.052
345 K	0.072
350 K	0.099

CCCC[C@H]1OC(=O)C[C@H]1C [cis-whiskey lactone]
Liquid
Conditions	vapor or sublimation pressure [kPa]
298.15 K	0.0015
305 K	0.0028
310 K	0.0043
315 K	0.0064
320 K	0.0095
325 K	0.014
330 K	0.02
335 K	0.029
340 K	0.041
345 K	0.057
350 K	0.079

CC1=C2CC[C@@H](C)C[C@@H]2OC1=O [(.+-.)-isomintlactone]
Metastable liquid
Conditions	vapor or sublimation pressure [kPa]
298.15 K	0.00026
305 K	0.00051
310 K	0.00081
315 K	0.0013
320 K	0.0019
325 K	0.0029
330 K	0.0044
335 K	0.0064
340 K	0.0093
345 K	0.013
350 K	0.019
